1 compound from PubChem BioAssay AID435015 (The Scripps Research Institute Molecular Screening Center, 2010) can be followed below.

By inhibition is commonly meant the share of the control response that was lost under treatment.

The subject of the assay is Vero E6 cytotoxicity, luminescence viability. Kind of assay: PubChem AID 435015. The note with it: at 20 µM; hits give high values.

Calls of active or inactive are those of the source. The rule behind the calls is not given here.

For `CC(C)(C)NC(=O)C(c1cccnc1)N(C(=O)c1ccco1)c1ccc(C(C)(C)C)cc1` (stereo unspecified), the inhibition is 23% (inactive).
